Source: US4677131

Test: shake-flask (equal volumes, stirred); both phases assayed by HPLC
Conditions: 32 °C

| Structure (SMILES) | partition coefficient iso-octane / distilled water [concentration ratio] |
| --- | --- |
| CCCCCCCCCCCCN1CCN(C)C1=O | 7350 |
| CCCCCCCCCCCCN1CCCCCC1=O | 2004 |
| CCCCCCCCCCN1CCN(C)C1=O | 756 |
| CCCCCCCN1CCN(C)C1=O | 24 |
